For test [1], the system named is human colon carcinoma cells HCT-116. The test is described as follows: XTT in vitro cytotoxicity assay, HCT-116 human colon carcinoma cells. The class given is cell-based. The procedure:
(§1) The HCT-116/VM46 cells are cells that have been previously selected for teniposide resistance and express the multi-drug resistance phenotype, including resistance to paclitaxel. Cytotoxicity was assessed in HCT-116 human colon carcinoma cells by XTT (2,3-bis(2-methoxy-4-nitro-5-sulfphenyl)-5-[(phenylamino)carbonyl]2H-tetrazolium hydroxide) assay as reported in D. A. Scudiero, et al., "Evaluation of soluble tetrazolium/formazan assay for cell growth and drug sensitivity in culture using human and other tumor cell lines," Cancer Res. 48:4827-4833, 1988. Cells were plated at 4000 cells/well in 96 well microtiter plates and 24 hours later drugs were added and serial diluted. The cells were incubated at 37° C. for 72 hours at which time the tetrazolium dye, XTT, was added. A dehydrogenase enzyme in live cells reduces the XTT to a form that absorbs light at 450 nm which can be quantitated spectrophotometrically. The greater the absorbance, the greater the number of live cells. The results are expressed as an IC50, which is the drug concentration required to inhibit cell proliferation (i.e., absorbance at 450 nm) to 50% of that of untreated control cells.
In general terms: Tetrazolium assays rely on reduction of a dye to a coloured formazan, in cell work by metabolically active cells.

Test [2] concerns human colon carcinoma cells HCT-116/VM46. The test is described as follows: XTT in vitro cytotoxicity assay, HCT-116/VM46 multi-drug resistant human colon carcinoma cells. The class given is cell-based. The procedure: as §1
Setting [3] is: HCT-116, 72 h, read-out: IC50 HCT116 (nM).
Where [4] appears, read: HCT-116/VM46, 72 h, read-out: IC50 HCT116/VM46 (nM).
Where [5] appears, read: HCT-116, XTT, 72 hours at 37° C., inhibition of cell proliferation to 50% of untreated control, read-out: IC50 HCT116.
The mark [6] stands for this setting: HCT-116/VM46, XTT, 72 hours at 37° C., teniposide-selected cells, multi-drug resistance phenotype incl. resistance to paclitaxel, read-out: IC50 HCT116/VM46.

Like-named read-outs stand apart in the source and are kept apart here.

Turning to `CC(=O)O[C@H]1C(=O)[C@]2(C)[C@@H]3O[C@@H]3[C@H]3OC[C@@]3(OC(C)=O)[C@H]2[C@H](OC(=O)c2ccccc2)[C@]2(O)C[C@H](OC(=O)[C@H](O)[C@@H](NC(=O)c3ccccc3)c3ccccc3)C(C)=C1C2(C)C` [Ia, 6,7-α-Epoxypaclitaxel], the results for the IC50 in test [1] (setting [3]) and in test [2] (setting [4]) were 1.2 nM and 30.5 nM, respectively.
In the case of `CC(=O)O[C@H]1C(=O)[C@]2(C)[C@@H]3O[C@@H]3[C@H]3OC[C@@]3(OC(C)=O)[C@H]2[C@H](OC(=O)c2ccccc2)[C@]2(O)C[C@H](OC(=O)[C@H](O)[C@@H](NC(=O)OC(C)(C)C)c3ccco3)C(C)=C1C2(C)C` [Ib, 3'-N-Debenzoyl-N-t-butoxycarbonyl-3'-desphenyl-3'-(2-furyl)-6,7-α-epoxypaclitaxel], the IC50 in test [1] (setting [5]) lay in the range of 1.3 to 3 nM; in test [2] (setting [6]) it was 2.8 to 13.9 nM.
With `CC(=O)O[C@H]1C(=O)[C@]2(C)[C@@H]3O[C@@H]3[C@H]3OC[C@@]3(OC(C)=O)[C@H]2[C@H](OC(=O)c2ccccc2)[C@]2(O)C[C@H](OC(=O)[C@H](O)[C@@H](NC(=O)c3ccccc3)c3ccco3)C(C)=C1C2(C)C` [Ic, 3'-Desphenyl-3'-(2-furyl)-6,7-α-epoxypaclitaxel], the results for the IC50 in test [1] (setting [3]) and in test [2] (setting [4]) were 0.6 nM and 12.3 nM, respectively.
On the same counts, the results for `CC(=O)O[C@H]1C(=O)[C@]2(C)[C@@H]3O[C@@H]3[C@H]3OC[C@@]3(OC(C)=O)[C@H]2[C@H](OC(=O)c2ccccc2)[C@]2(O)C[C@H](OC(=O)[C@H](O)[C@H](C=C(C)C)NC(=O)OC(C)(C)C)C(C)=C1C2(C)C` [Id, 3'-N-Debenzoyl-N-t-butoxycarbonyl-3'-desphenyl-3'-isobutenyl-6,7-α-epoxypaclitaxel] are 1.3 nM and 3.3 nM.
For the compound `CC(=O)O[C@H]1C(=O)[C@@]2(C)[C@H]([C@H](OC(=O)c3ccccc3)[C@]3(O)C[C@H](OC(=O)[C@H](O)[C@@H](NC(=O)c4ccccc4)c4ccccc4)C(C)=C1C3(C)C)[C@]1(OC(C)=O)CO[C@@H]1C[C@@H]2O` [paclitaxel], the results for the IC50 in test [1] (setting [5]) and in test [2] (setting [6]) were 1.3 to 3.5 nM and 244 to 403 nM, respectively.
